Measured values reported in patent publication US10865391B2, “Glutamate dehydrogenase mutants and their application in preparation of L-phosphinothricin” (ZHEJIANG UNIVERSITY, priority 2018, dated 2020).

Tests used:
Type in all cases: biochemical, Pseudomonas putida
[1] = test system: PpGluDH-A167G; assay: Catalytic activity toward other keto acid substrates by spectrophotometry, A167G mutant; details: keto acid as substrate; for Specific activity (U/mg) A167G: PpGluDH-A167G; for Catalytic activity of PpGluDH-A167G compared with the wild type: result in words
[2] = test system: PpGluDH-V378A; assay: Catalytic activity toward other keto acid substrates by spectrophotometry, V378A mutant; details: keto acid as substrate; for Specific activity (U/mg) V378A: PpGluDH-V378A; for Catalytic activity of PpGluDH-V378A compared with the wild type: result in words
[3] = test system: wild type PpGluDH; assay: Catalytic activity toward other keto acid substrates by spectrophotometry, wild type; details: keto acid as substrate

| SMILES | Specific activity (U/mg) A167G [1] [U/mg] | Catalytic activity of PpGluDH-A167G compared with the wild type [1] | Specific activity (U/mg) V378A [2] [U/mg] | Catalytic activity of PpGluDH-V378A compared with the wild type [2] | Specific activity (U/mg) Wild [3] [U/mg] |
| --- | --- | --- | --- | --- | --- |
| O=C(O)C(=O)CCc1ccccc1 [12a, 2-Oxo-4-phenylbutyric acid] | 0.33 | improved to some extent | 0.04 | decreased | 0.08 |
| CC(=O)C(=O)O [2a, Pyruvic acid] | <0.01 |  | 0.01 |  | 0.15 |
| O=C(O)CCC(=O)C(=O)O [1a, 2-Ketoglutaric acid] | 314.41 | improved catalytic activity | 268.48 | improved catalytic activity | 189.05 |
| CC(C)CC(=O)C(=O)O [8a, 4-Methyl-2-Oxovaleric acid] | 0.01 |  | 0.03 |  | 0.05 |
| O=C(O)C(=O)Cc1ccccc1 [11a, Phenylpyruvic acid] | <0.01 |  | <0.01 |  | <0.01 |
| CCC(=O)C(=O)O [3a, 2-Ketobutyric acid] | 0.09 |  | 0.34 |  | 4.93 |
| CC(C)C(=O)C(=O)O [4a, 3-Methyl-2-oxobutanoic acid] | <0.01 |  | 0.04 |  | 0.37 |
| CCC(C)C(=O)C(=O)O (stereo not drawn) [7a, 3-Methyl-2-Oxovaleric acid] | <0.01 |  | 0.03 |  | 0.07 |
| O=C(O)C(=O)c1ccccc1 [10a, Phenylglyoxylic acid] | 0.01 |  | 0.01 |  | 0.04 |
| O=C(O)C(=O)Cc1ccc(O)cc1 [13a, 4-hydroxyphenylpyruvic acid] | <0.01 |  | <0.01 |  | 0.02 |
| CCCCC(=O)C(=O)O [9a, 2-Ketohexanoic acid] | 1.23 | improved catalytic activity | 1.49 | improved catalytic activity | 0.71 |
| CCCC(=O)C(=O)O [6a, 2-Oxovaleric acid] | 1.21 |  | 2.37 |  | 6.39 |
